{"source": "patent US6949522B2", "about": "“β-2′- or 3′-halonucleosides” (Pharmasset, Inc., priority 2001, dated 2005)", "key": {"β-actin gene": {"test_system": "β-actin gene", "type": "cell-based, human", "conditions": "human, 7 days, 10 μM", "description": "Low passage number HepG2 cells, obtained from American Tissue Culture Collection (ATCC, Manassas, Va.) were seeded at 5,000 cells/well in collagen-coated 96-well plates. Test compounds were added to the media to obtain a final concentration of 10 μM. On culture day 7, cellular nucleic acids were prepared by using commercially available columns (RNeasy 96 kit, Qiagen). […] The mitochondrial cytochrome C oxidase subunit II (COXII) gene and the β-actin or rRNA gene were amplified from 5 μL with a multiplex Q-PCR protocol using the suitable primers and probes for both target and reference (designed using the Primer Express software, Applied Biosystems); • for COXII. • sense primer 5′-[…]-3′ (Sequence 7); • probe 5′-TET-[…]-TAMRA-3′ (Sequence 8); and • antisense probe 5′-[…]-3′ (Sequence 9); • for exon 3 of β-actin (GenBank E01094): • sense primer 5′-[…]-3′ (Sequence 10); • probe 5′-6FAM-[…]-TAMRA-3′ (Sequnece 11); and • antisense probe 5′-[…]-3′ (Sequence 12).\nThe rRNA gene primers and probes were purchased from Applied Biosystems. Standard curves using 1-log diluted total HepG2 DNA were linear over more than 5 logs. In addition, efficiencies of target (COXII DNA) and reference (β-actin DNA or rRNA) amplification were approximately equal, because the slope of the ΔCt line (Ct β-actin minus Ct mitochondrial) was less than 0.1 (not shown). Since equal amplification efficiencies were obtained for both genes, the comparative cycle threshold (Ct) method was used to investigate potential inhibition of the mitochondrial DNA polymerase γ. The comparative Ct method uses arithmetic formulas in which the amount of target (COXII gene) is normalized to an endogenous reference (β-actin gene or rRNA gene) and is relative to a calibrator (no drug control at day 7). The arithmetic formula for this approach is given by 2-ΔΔCt (User bulletin # 2, Applied Biosystems).\nIn order to study the consequences of possible inhibitory effects of these compounds on host DNA polymerases, nuclear and rnitochondrial DNA levels were quantified and compared to no-treatment controls. Cells were incubated for 7 days with 10 μM of each compound, followed by total nucleic acid extractions and multiplex Q-PCR of the rRNA gene and the mitochondrial COXII gene. Nucleic acids from cells exposed to the control compounds were also amplified in multiplex for mitDNA and the β-actin gene. The results are presented in Table 4 using the comparative Ct method."}, "[1]": {"test_system": "CEM (T-lymphoblastoid cell line)", "type": "cell-based", "description": "The compounds were evaluated for their potential toxic effects on uninfected PHA-stimulated human PBM cells, in CEM (T-lymphoblastoid cell line obtained from American Type Culture Collection, Rockville, Md.) and Vero (African green monkey kidney) cells. PBM cells were obtained from whole blood of healthy seronegative donors (HIV-1 and hepatitis B virus) by single-step Ficoll-Hypaque discontinous gradient centrifugation. Log phase Vero, CEM and PHA-stimulated human PBM cells were seeded at a density of 5×10^3, 2.5×10^3 and 5×10^4 cells/well respectively. All of the cells were plated in 96-well cell culture plates containing ten-fold serial dilutions of the test drug. The cultures were incubated for 3, 4 and 5 days for Vero, CEM, and PBM cells, respectively in a humidified 5% CO2-air at 37° C. At the end of incubation, MTT tetrazolium dye solution (Cell titer 96®, Promega, Madison, Wis.) was added to each well and incubated overnight. The reaction was stopped with stop solubilization solution (Promega, Madison, Wis.). The plates were incubated for 5 hours to ensure that the formazan crystals were dissolved. The plates were read at a wavelength of 570 nm using an ELISA plate reader (Bio-tek instruments, Inc., Winooski, Vt., Model # EL 312e). […] Bookmark not defined."}, "HIV-1LAI": {"test_system": "HIV-1LAI", "experiment": "HIV assay in human PBM cells (RT activity of supernatant)", "type": "cell-based", "conditions": "5 days, read-out: Anti-HIV-1 Activity (EC50)", "from_the_text": "Human peripheral blood mononuclear (PBM) cells (obtained from Atlanta Red Cross) were isolated by Ficoll-Hypaque discontinuous gradient centrifugation from healthy seronegative donors. Cells were stimulated with phytohemagglutinin A (Difco, Sparks, Md.) for 2-3 days prior to use. HIV-1LAI obtained from the Centers for Disease Control and Prevention (Atlanta, Ga.) was used as the standard reference virus for the antiviral assays. The molecular infetious clones HIV-1xxBru and HIV-1M184Vpin were obtained from Dr. John Mellors (University of Pittsburgh). Infections were done in bulk for one hour, either with 100 TCID50/1×10^7 cells for a flask (T25) assay or with 200 TCID50/6×10^5 cells/well for a 24 well plate assay. Cells were added to a plate or flask containing a ten-fold serial dilution of the test compound. Assay medium was RPMI-1640 supplemented with heat inactivated 16% fetal bovine serum, 1.6 mM L-glutamine, 80 IU/ml penicillin, 80 μg/ml streptomycin, 0.0008% DEAE-Dextran, 0.045% sodium bicarbonate, and 26 IU/ml recombinant interleukin-2 (Chiron Corp, Emeryville, Calif.). AZT was used as a positive control for the assay. Untreated and uninfected PBM cells were grown in parallel at equivalent cell concentrations as controls. The cell cultures were maintained in a humidified 5% CO2-air at 37° C. for 5 days and supernatants were collected for reverse transcriptase (RT) activity.\nSupernatants were centrifuged at 12,000 rpm for 2 hours to pellet the virus. The pellet was solubilized with vortexing in 100 μl virus solubilization buffer (VSB) containing 0.5% Triton X-100, 0.8 M NaCl, 0.5 mM phenylmethylsulfonyl fluoride, 20% glycerol, and 0.05 M Tris, pH 7.8. Ten μL of each sample were added to 75 μL RT reaction mixture (0.06 M Tris, pH 7.8, 0.012 M MgCl2, 0.006 M dithiothreitol, 0.006 mg/ml poly (rA)n, oligo (dT)12-18, 96 μg/ml dATP, and 1 μM of 0.08 mCi/ml ^3H-thymidine triphosphate (Moravek Biochemicals, Brea, Calif.) and incubated at 37° C. for 2 hours. The reaction was stopped by the addition of 100 μL 10% trichloroacetic acid containing 0.05% sodium pyrophosphate. The acid insoluble product was harvested onto filter paper using a Packard Harvester (Meriden, Conn.), and the RT activity was read on a Packard Direct Beta Counter (Meriden, Conn.). The RT results were expressed in counts per minute (CPM) per milliliter."}}, "note": "Where two headings read alike, the source gives them in different places.", "data": [{"smiles": "Cc1cn([C@H]2C[C@H](N=[N+]=[N-])[C@@H](CO)O2)c(=O)[nH]c1=O", "note": "[AZT, 3′-azido-3′-deoxythymidine, reference compound]", "values": [{"measurement": "Average ΔCt ± SD β-actin DNA", "setting": "β-actin gene", "result": "0.10 ± 0.38"}, {"measurement": "IC50", "setting": "[1]; human, 4 days", "result": 29, "unit": "µM"}, {"measurement": "EC50", "setting": "HIV-1LAI; Human immunodeficiency virus 1, PBMC, 120 h", "result": 0.004, "unit": "µM"}]}, {"smiles": "Nc1ccn([C@@H]2CS[C@H](CO)O2)c(=O)n1", "note": "[Compound 3TC, (−)-β-2′,3′-dideoxy-3′-thiacytidine, reference compound]", "values": [{"measurement": "Average ΔCt ± SD β-actin DNA", "setting": "β-actin gene", "result": "0.11 ± 0.23"}]}, {"smiles": "Nc1ccn([C@@H]2S[C@H](CO)C=C2F)c(=O)n1", "note": "[Compound D-17, (−)-1-[(1S,4R)-2,3-dideoxy-2,3-didehydro-2-fluoro4-thio-β-D-ribofuranosyl]-cytosine]", "values": [{"measurement": "IC50", "setting": "[1]", "result": "> 100", "unit": "µM"}, {"measurement": "EC50", "setting": "HIV-1LAI", "result": 1.3, "unit": "µM"}]}, {"smiles": "Nc1nc(=O)n([C@@H]2S[C@H](CO)C=C2F)cc1F", "note": "[Compound D-18, (−)-1-[(1S,4R)-2,3-dideoxy-2,3-didehydro-2-fluoro-4-thio-β-D-ribofuranosyl]-5-fluorocytosine]", "values": [{"measurement": "IC50", "setting": "[1]", "result": "> 100", "unit": "µM"}, {"measurement": "EC50", "setting": "HIV-1LAI", "result": 11.6, "unit": "µM"}]}, {"smiles": "Nc1ccn([C@H]2S[C@@H](CO)C=C2F)c(=O)n1", "note": "[Compound L-17, (+)-1-[(1S,4R)-2,3-dideoxy-2,3-didehydro-2-fluoro-4-thio-β-L-ribofuranosyl]-cytosine]", "values": [{"measurement": "IC50", "setting": "[1]", "result": "> 100", "unit": "µM"}]}, {"smiles": "Nc1nc(=O)n([C@H]2S[C@@H](CO)C=C2F)cc1F", "note": "[Compound L-18, (+)-1-[(1S,4R)-2,3-dideoxy-2,3-didehydro-2-fluoro-4-thio-β-L-ribofuranosyl]-5-fluoro-cytosine]", "values": [{"measurement": "IC50", "setting": "[1]", "result": "> 100", "unit": "µM"}, {"measurement": "EC50", "setting": "HIV-1LAI", "result": 0.15, "unit": "µM"}]}]}
